The text below walks through data of patent US20090093538A1, “Method for treating cancer” (priority 2007, published 2009).

For one assay, the system named is Hsp70. Put plainly: Cell surface expression of Hsp70, HT29 cells (confocal microscopy). It counts as cell-based, human. The note with it: HT29, 500 nM, 6 hrs. How it is done: After treatment, cells were rinsed one time in PBS then fixed in 2% Paraformaldehyde at room temperature for 20 minutes. Slides with the fixed cells were rinsed with PBS two times. Primary antibody mouse monoclonal anti-Hsp70 (Stressgen SPA-8 10) was diluted 1:100 in PBS and the slides were incubated 1 hour at 37° C. The slides were rinsed two times with PBS. Secondary antibody anti-mouse AlexaFluor 488 (Molecular Probes A-11001) was diluted 1:500 in PBS and the slides were incubated 30 min at 37° C. The slides were rinsed two times in PBS. DAPI (Molecular Probes D-3571) were diluted 1:10,000 in PBS and the slides were incubated at room temperature in dark for 5 min. The slides were rinsed two times in PBS, then once in deionized water and left to dry in dark until almost completely dry. Coverslips were mounted with Prolong Anti-fade Mounting Media (Molecular Probes P-748 1). The images were captured with a monochrome CCD camera SenSys (see FIGS. 27A-D and 28A-D) or by confocal microscopy (see FIG. 29A-E). In FIGS. 27A-D and 28A-D, the bright pink color on the surface of the MCF-7 cells (FIG. 27A-D) or CEM cells (FIG. 28A-D) indicates Hsp70 on the surface of the cells. In FIG. 29A-E the bright green color on the surface of the cell indicates Hsp70 on the surface of the HT29 cells.

The subject of another assay is MAPKAPK-2. Put plainly: MAPKAPK-2 phosphorylation, Western blot, CEM and CV-1 cells. It counts as cell-based. Conditions: CEM and CV-1 tumor cells, 0.1 or 0.5 μM. As for the experimental part:
After treatment the cells were lysized and used for Western blot analysis.
Samples were run on a SDS-PAGE gel and proteins were transferred onto a nitrocellulose membrane by a semi-dry transfer. Nitrocellulose was blocked with 5% skim milk in TBS with 0.5% Tween at room temperature for 1 hour and then probed with anti-p-MAPKAPK-2 (Thr334) (#3041, Cell Signaling) antibody. Tubulin was used as a normalization control and was probed with Anti-Tubulin (T9026, Sigma) antibody.
(In general: Immunoblotting shows a protein as a band on a membrane.)

Regarding `CN(NC(=O)CC(=O)NN(C)C(=S)c1ccccc1)C(=S)c1ccccc1` [Compound 1], in the assay on Hsp70, the “Hsp70 on the surface of cells” value is on record as “bright green color on the surface of the cells indicating Hsp70”. In the assay with MAPKAPK-2, the “phosphorylation of MAPKAPK-2” value is “induces the phosphorylation of MAPKAPK-2”.
